The values that follow are results of earlier work, collected in paper PMC6261507 (ACS applied nano materials, 2018).

In the series the test system is integrin αvβ3.

“Arg-Gly-Asp [RGD, arginine-glycine-aspartic acid]”: the “affinity towards integrin αvβ3” value was “nanomolar affinity”.
